Results reported in patent publication US11891377B1, “Pyrrolo[3,2-c][2,7]naphthyridine-2-carboxylic acid compounds as CK2 inhibitors” (KING FAISAL UNIVERSITY, priority 2023, dated 2024).
pIC50: −log10 of the molar value.

Legend:
[1] = target: T1, recombinant human CK2 (RRββ-holoenzyme) (Homo sapiens, UniProt P68400); assay: CK2 Kinase Assay (radiometric, [γ-33P]ATP); format: biochemical; settings: final ATP concentration 15 μM, 10 min at 30° C.; read-out: protein kinase CK2 IC50
T1 construct: purchased Millipore
T1 sequence (P68400 whole entry): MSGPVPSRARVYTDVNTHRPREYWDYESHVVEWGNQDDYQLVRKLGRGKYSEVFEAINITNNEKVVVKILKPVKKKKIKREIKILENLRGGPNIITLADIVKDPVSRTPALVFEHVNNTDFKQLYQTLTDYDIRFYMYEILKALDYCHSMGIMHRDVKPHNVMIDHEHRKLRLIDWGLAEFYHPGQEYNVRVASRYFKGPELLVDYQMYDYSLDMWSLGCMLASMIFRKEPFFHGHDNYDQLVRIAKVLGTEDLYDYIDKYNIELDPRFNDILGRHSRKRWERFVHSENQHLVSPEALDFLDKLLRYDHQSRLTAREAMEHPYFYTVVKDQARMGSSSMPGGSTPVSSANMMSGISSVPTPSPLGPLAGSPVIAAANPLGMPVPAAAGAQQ
T1 sequence (P67870 whole entry partner): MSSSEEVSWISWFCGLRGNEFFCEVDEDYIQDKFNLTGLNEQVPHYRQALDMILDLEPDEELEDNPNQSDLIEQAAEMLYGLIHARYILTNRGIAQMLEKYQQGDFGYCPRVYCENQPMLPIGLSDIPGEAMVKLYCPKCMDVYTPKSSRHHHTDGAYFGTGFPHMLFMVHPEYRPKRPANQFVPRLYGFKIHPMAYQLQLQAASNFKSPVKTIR
Experimental: CK2 Kinase Assay was conducted using the protocol as described in Pierre F. et al; J. Med. Chem. 2011, 54, 635-654. The tested compounds in aqueous solution were added at a volume of 10 μL to a reaction mixture comprising 10 μL of assay dilution buffer (ADB; 20 mM MOPS, pH 7.2, 25 mM β-glycerol phosphate, 5 mM EGTA, 1 mM sodium orthovanadate, and 1 mM dithiothreitol), 10 μL of substrate peptide (RRRDDDSDDD, dissolved in ADB at a concentration of 1 mM), 10 μL of recombinant human CK2 (RRββ-holoenzyme, 25 ng dissolved in ADB; Millipore). Reactions were initiated by the addition of 10 μL of ATP solution (90% 75 mMMgCl2, 75 μM ATP (final ATP concentration: 15 μM) dissolved in ADB; 10% [γ-33P] ATP (stock 1 mCi/100 μL; 3000 Ci/mmol (Perkin-Elmer) and maintained for 10 min at 30° C. The reactions were quenched with 100 μL of 0.75% phosphoric acid and then transferred to and filtered through a phosphor cellulose filter plate (Millipore). After washing each well five times with 0.75% phosphoric acid, the plate was dried under vacuum for 5 min and, following the addition of 15 μL of scintillation fluid to each well, the residual radioactivity was measured using a Wallac luminescence counter. The ICso values were derived from eight concentrations of test inhibitors.

MCF7 (breast) = assay: In vitro cytotoxic activity (MTT) assay, MCF7; format: cell-based; settings: Homo sapiens; MCF7 cells, exposed for 96 hours; read-out: IC50, 50% inhibition of cell proliferation, MCF7 (breast)
Experimental: (§1) Compounds 1-16 were screened for their in vitro cytotoxic activity utilizing a 3-(4,5-dimethyl-thiazol-2-yl)-2,5-diphenyltetrazolium bromide (MTT) assay against selected cancer human cell lines consisting of PC3 (prostate), HCT116 (colon), A375 (melanoma), H1299 (lung), MIAPaCa-2 (pancreas), HL60 (leukemia), MCF7 (breast), MDA-MB-231 (breast) (T. Mosmann, J. Immunol. Meth., 1983, 65, 55-63). The cells were cultured at 37° C. in RMPI1640 medium supplemented with 10% fetal bovine serum, 50 IU/mL penicillin, and 50 μg/mL streptomycin in a 5% CO2 incubator. All cells were sub-cultured 3 times/week by trypsinisation. Viable cells were seeded and allowed to adhere for 12 h before a test drug was added in 96-well plates at an initial density of 1.0×10^5 cells/mL. Tumour cell lines were separately exposed to various concentrations of the tested compounds followed by incubation at a temperature of 37° C. during 96 h inside a medium of fresh RMPI 1640. Cells were subsequently incubated at 37° C. using MTT at 0.5 mg/mL during 4 h. After removal of supernatant, formazan crystals were dissolved in isopropanol and the optical density was measured at 570 nm. CX-4945 was used as a positive control.

MIAPaCa-2 (pancreas) = assay: In vitro cytotoxic activity (MTT) assay, MIAPaCa-2; format: cell-based; settings: Homo sapiens, MIA PaCa-2; MIAPaCa-2 cells, exposed for 96 hours; read-out: IC50, 50% inhibition of cell proliferation, MIAPaCa-2 (pancreas)
Experimental: as §1

HL60 (leukemia) = assay: In vitro cytotoxic activity (MTT) assay, HL60; format: cell-based; settings: Homo sapiens, HL-60; HL60 cells, exposed for 96 hours; read-out: IC50, 50% inhibition of cell proliferation, HL60 (leukemia)
Experimental: as §1

MDA-MB-231 (breast) = assay: In vitro cytotoxic activity (MTT) assay, MDA-MB-231; format: cell-based; settings: Homo sapiens; MDA-MB-231 cells, exposed for 96 hours; read-out: IC50, 50% inhibition of cell proliferation, MDA-MB-231 (breast)
Experimental: as §1

A375 (melanoma) = assay: In vitro cytotoxic activity (MTT) assay, A375; format: cell-based; settings: Homo sapiens, A-375; A375 cells, exposed for 96 hours; read-out: IC50, 50% inhibition of cell proliferation, A375 (melanoma)
Experimental: as §1

HCT116 (colon) = assay: In vitro cytotoxic activity (MTT) assay, HCT116; format: cell-based; settings: Homo sapiens, HCT-116; HCT116 cells, exposed for 96 hours; read-out: IC50, 50% inhibition of cell proliferation, HCT116 (colon)
Experimental: as §1

PC3 (prostate) = assay: In vitro cytotoxic activity (MTT) assay, PC3; format: cell-based; settings: Homo sapiens, PC-3; PC3 cells, exposed for 96 hours; read-out: IC50, 50% inhibition of cell proliferation, PC3 (prostate)
Experimental: as §1

H1299 (lung) = assay: In vitro cytotoxic activity (MTT) assay, H1299; format: cell-based; settings: Homo sapiens, NCI-H1299; H1299 cells, exposed for 96 hours; read-out: IC50, 50% inhibition of cell proliferation, H1299 (lung)
Experimental: as §1

O=C(O)c1cc2nc(Nc3cccc(Cl)c3)c3cnccc3c2[nH]1 [Compound 1, 5-((3-chlorophenyl)amino)-1H-pyrrolo[3,2-c][2,7]naphthyridine-2-carboxylic Acid]
pIC50 [1]: 7.46 | pIC50 (MCF7 (breast)): 5.41 | pIC50 (MIAPaCa-2 (pancreas)): 5.96 | pIC50 (HL60 (leukemia)): 5.59 | pIC50 (MDA-MB-231 (breast)): 5.48 | pIC50 (A375 (melanoma)): 5.60 | pIC50 (HCT116 (colon)): 5.89 | pIC50 (PC3 (prostate)): 5.68 | pIC50 (H1299 (lung)): 5.92
